Columns and labels:
Format in all cases: cell-based
[1] = tested on: Corynebacterium minutissimum (ATCC 23348); assay: Carbohydrate Screening Test Method (Biolog phenotype microarray), Bacteria Code A; settings: Pathogenic; carbon microarray plate, OD 600 nm, 36 hr, 33° C.; positive = more than 0.05 OD units above zero; blank cell = not utilized
Excerpt: (§1) After creating desired ratios of various commensal skin bacteria in a healthy skin microbiome, 188 different carbohydrate sources were screened as the next step in determining potential prospects for skin microbiota balancing agents. The screening process was set up to determine which carbohydrate sources promoted commensal and/or pathogenic bacteria as well as to obtain individual and combinations of carbohydrate sources that could serve as microbiota balancing agents that can support or maintain the healthy proportions of commensal skin bacteria of Corynebacterium, Staphylococcus, and Micrococcus. The screening was conducted utilizing Biolog phenotype microarray plates (Hayward, Calif.). Table 1 provides a coded list of the commensal and pathogenic skin bacteria that the carbohydrates were screened against.
(§2) Table 2 provides the results of screening various carbohydrate sources against the commensal and pathogenic bacteria codes listed in Table 1. The Bacteria Codes B, D, E, I, and J are commensal bacteria and are shaded in Table 2 for references purposes. The bacteria codes were each placed in a carbon microarray plate and screened through the Carbohydrate Screening Test Method, as described in the Test Methods section herein. If a particular bacteria code utilized a specific carbohydrate source as described in the Carbohydrate Screening Test Method, then the corresponding cell in Table 2 was marked with a Y (short for “Yes”). […] Many of the carbohydrate sources were utilized by both commensal and pathogenic bacteria, and as such, would not provide an advantage for selective growth of the commensal bacteria. However, some of the carbohydrate sources were only used by commensal bacteria and were identified for further testing as described herein.
(§3) The study employed 10 representative skin bacteria; Staphylococcus epidermidis ATCC 14990, Staphylococcus epidermidis M23864:W2, Staphylococcus aureus ATCC 6538, Staphylococcus aureus ATCC 25904 (Newman), Pseudomonas aeruginosa ATCC 9027, Micrococcus luteus ATCC […], Micrococcus luteus SK58, Klebsiella pneumoniae ATCC BAA-2146, Corynebacterium amycolatum SK46, and Corynebacterium minutissimum ATCC 23348. Cultures were started from freezer bead stocks by placing a single bead into 20 mL of tryptic soy broth (TSB) for all organisms except C. amycolatum SK46 and C. minutissimum ATCC 23348, which were placed into brain heart infusion (BHI) broth. Cultures were grown for about 24 hr at 37° C. except M. luteus ATCC 49732 and M. luteus SK58, which were grown at 30° C. A passage of the culture was made using a sterile swab and streaked onto two M9*2 agar plates to prepare the incubated culture for the phenotype microarray pate according to Table 4. Plates were incubated for about 24 hr at 37° C. except for M. luteus ATCC 49732 and M. luteus SK58, which were incubated at 30° C. for 24 hr.
(§4) All cultures were harvested and washed before inoculation into the carbon microarray plate (BiOLOG, Hayward Calif.), with Biolog Plates PM1 and PM2 each having a source definition of Carbon. The bacteria on the M9*2 agar was suspended via agitation with an inoculating loop in 1 mL of M9*1 media for collection in a 1.7 mL micro centrifuge tube, as noted in Table 4. The bacteria was suspended again in M9*1 media, agitated, and collected into the same 1.7 mL microcentrifuge tube used in the previous step. The tube was centrifuged for 5 minutes at 4,000×G, supernatant decanted, the pellet was resuspended in 1 mL of M9*1 media, and vortex. This washing process was repeated for a total of 4 times.
(§5) A tenfold dilution in M9*1 media was performed using 1 mL of the washed bacterial culture. Of the tenfold dilution 200 μL was placed in an untreated 96-well plate (Falcon, Pasadena Tx.) for an initial optical density (OD) reading at a wavelength of 600 nm. The OD was used to correlate to colony forming units (CFU) per milliliter by using linear regression lines for each organism. […]

[2] = tested on: Corynebacterium jeikum (ATCC 33033); assay: Carbohydrate Screening Test Method (Biolog phenotype microarray), Bacteria Code B; settings: Commensal; carbon microarray plate, OD 600 nm, 36 hr, 33° C.; positive = more than 0.05 OD units above zero; blank cell = not utilized
Procedure, shortened: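 Strain from M9*2 agar was suspended in M9*1 medium, washed and inoculated into Biolog PM1/PM2 carbon plates. Carbohydrate use was scored yes/no, and growth rate and maximum yield were derived with GrowthRates 2.1, with max yields used for commensal ratios.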

[3] = tested on: Staphylococcus aureus (ATCC 6538); assay: Carbohydrate Screening Test Method (Biolog phenotype microarray), Bacteria Code G; settings: Pathogenic; carbon microarray plate, OD 600 nm, 36 hr, 33° C.; positive = more than 0.05 OD units above zero; blank cell = not utilized
Excerpt: as §1, §2, §3, §4, §5

[4] = tested on: Staphylococcus aureus (ATCC 25904) (Newman); assay: Carbohydrate Screening Test Method (Biolog phenotype microarray), Bacteria Code H; settings: Pathogenic; carbon microarray plate, OD 600 nm, 36 hr, 33° C.; positive = more than 0.05 OD units above zero; blank cell = not utilized
Excerpt: as §1, §2, §3, §4, §5

[5] = tested on: Klebsiella pneumoniae (ATCC BAA-2146); settings: Pathogenic; carbon microarray plate, OD 600 nm, 36 hr, 33° C.; positive = more than 0.05 OD units above zero; blank cell = not utilized
[6] = tested on: Micrococcus luteus (SK58); assay: Carbohydrate Screening Test Method (Biolog phenotype microarray), Bacteria Code E; settings: Commensal; carbon microarray plate, OD 600 nm, 36 hr, 33° C.; positive = more than 0.05 OD units above zero; blank cell = not utilized
Procedure, shortened: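 Each commensal strain grown in Biolog carbon phenotype microarray plates with single carbohydrate sources. Growth curves fitted with GrowthRates 2.1 to give growth rate and maximum yield. Max yields used to calculate predicted co-culture ratios between Corynebacterium, Staphylococcus and Micrococcus, compared with desired ratios of 1.3, 1.4 and 1.1.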

[7] = tested on: Pseudomonas aeruginosa (ATCC 9027); settings: Pathogenic; carbon microarray plate, OD 600 nm, 36 hr, 33° C.; positive = more than 0.05 OD units above zero; blank cell = not utilized
Procedure, shortened: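 Carbon-source utilisation screen on Biolog PM1/PM2 plates: strain grown in TSB then on M9*2 agar, each ~24 h at 37 °C, washed four times in M9*1 and diluted tenfold. OD600 correlated to CFU/mL; each carbohydrate scored Yes when utilised.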

[8] = tested on: Staphylococcus epidermidis (M23864:W2); assay: Carbohydrate Screening Test Method (Biolog phenotype microarray), Bacteria Code J; settings: Commensal; carbon microarray plate, OD 600 nm, 36 hr, 33° C.; positive = more than 0.05 OD units above zero; blank cell = not utilized
[9] = tested on: Staphylococcus epidermidis (ATCC 14990); assay: Carbohydrate Screening Test Method (Biolog phenotype microarray), Bacteria Code I; settings: Commensal; carbon microarray plate, OD 600 nm, 36 hr, 33° C.; positive = more than 0.05 OD units above zero; blank cell = not utilized
Excerpt: as §1, §2, §3, §4, §5

[10] = tested on: Micrococcus luteus (ATCC 49732); assay: Carbohydrate Screening Test Method (Biolog phenotype microarray), Bacteria Code D; settings: Commensal; carbon microarray plate, OD 600 nm, 36 hr, 33° C.; positive = more than 0.05 OD units above zero; blank cell = not utilized
Excerpt: as §1, §2, §3, §4, §5

O=C(O)[C@@H](O)[C@@H](O)[C@H](O)[C@@H](O)C(=O)O [D-Saccharic Acid]
Y: Carbohydrate Screening Results, Bacteria Code A [1]

OC[C@@H](O)[C@@H](O)[C@H](O)[C@H](O)CO [D-Mannitol]
Y: Carbohydrate Screening Results, Bacteria Code B [2] | Carbohydrate Screening Results, Bacteria Code G [3] | Carbohydrate Screening Results, Bacteria Code H [4] | Carbohydrate Screening Results, Bacteria Code C [5] | Carbohydrate Screening Results, Bacteria Code E [6] | Carbohydrate Screening Results, Bacteria Code F [7]

Maltotriose
Y: Carbohydrate Screening Results, Bacteria Code B [2] | Carbohydrate Screening Results, Bacteria Code A [1] | Carbohydrate Screening Results, Bacteria Code H [4] | Carbohydrate Screening Results, Bacteria Code C [5] | Carbohydrate Screening Results, Bacteria Code J [8] | Carbohydrate Screening Results, Bacteria Code E [6] | Carbohydrate Screening Results, Bacteria Code F [7] | Carbohydrate Screening Results, Bacteria Code I [9]

OC[C@H]1O[C@@H](n2cnc3c(O)ncnc32)[C@H](O)[C@@H]1O [Inosine]
Y: Carbohydrate Screening Results, Bacteria Code B [2] | Carbohydrate Screening Results, Bacteria Code H [4] | Carbohydrate Screening Results, Bacteria Code C [5] | Carbohydrate Screening Results, Bacteria Code E [6]

OC[C@H]1O[C@@](CO)(O[C@H]2O[C@H](CO)[C@@H](O)[C@H](O)[C@H]2O)[C@@H](O)[C@@H]1O [Sucrose]
Y: Carbohydrate Screening Results, Bacteria Code B [2] | Carbohydrate Screening Results, Bacteria Code G [3] | Carbohydrate Screening Results, Bacteria Code A [1] | Carbohydrate Screening Results, Bacteria Code C [5] | Carbohydrate Screening Results, Bacteria Code J [8] | Carbohydrate Screening Results, Bacteria Code E [6] | Carbohydrate Screening Results, Bacteria Code F [7]

O=C(CO)[C@@H](O)[C@H](O)[C@H](O)COP(=O)(O)O [D-Fructose-6-Phosphate]
Y: Carbohydrate Screening Results, Bacteria Code B [2] | Carbohydrate Screening Results, Bacteria Code G [3] | Carbohydrate Screening Results, Bacteria Code H [4] | Carbohydrate Screening Results, Bacteria Code J [8] | Carbohydrate Screening Results, Bacteria Code E [6]

CSCC[C@H](N)C(=O)O [L-Methionine]
Y: Carbohydrate Screening Results, Bacteria Code A [1]

OC[C@H]1O[C@H](O[C@H]2[C@H](O)[C@@H](O)[C@H](O)O[C@@H]2CO)[C@H](O)[C@@H](O)[C@@H]1O [Maltose]
Y: Carbohydrate Screening Results, Bacteria Code B [2] | Carbohydrate Screening Results, Bacteria Code H [4] | Carbohydrate Screening Results, Bacteria Code C [5] | Carbohydrate Screening Results, Bacteria Code J [8] | Carbohydrate Screening Results, Bacteria Code E [6] | Carbohydrate Screening Results, Bacteria Code F [7] | Carbohydrate Screening Results, Bacteria Code I [9]

CC(N)=O [Acetamide]
Y: Carbohydrate Screening Results, Bacteria Code A [1]

Cc1cn([C@H]2C[C@H](O)[C@@H](CO)O2)c(=O)[nH]c1=O [Thymidine]
Y: Carbohydrate Screening Results, Bacteria Code B [2] | Carbohydrate Screening Results, Bacteria Code A [1] | Carbohydrate Screening Results, Bacteria Code E [6]

O=C[C@H](O)[C@@H](O)[C@H](O)[C@H](O)COP(=O)(O)O [D-Glucose-6-Phosphate]
Y: Carbohydrate Screening Results, Bacteria Code G [3] | Carbohydrate Screening Results, Bacteria Code C [5] | Carbohydrate Screening Results, Bacteria Code J [8] | Carbohydrate Screening Results, Bacteria Code E [6] | Carbohydrate Screening Results, Bacteria Code F [7] | Carbohydrate Screening Results, Bacteria Code I [9]

CC(=O)N[C@H]1C(O)O[C@H](CO)[C@@H](O)[C@@H]1O (stereo partly drawn) [N-Acetyl-D-Glucosamine]
Y: Carbohydrate Screening Results, Bacteria Code B [2] | Carbohydrate Screening Results, Bacteria Code A [1] | Carbohydrate Screening Results, Bacteria Code E [6]

CC(=O)C(=O)O [Pyruvic Acid]
Y: Carbohydrate Screening Results, Bacteria Code B [2] | Carbohydrate Screening Results, Bacteria Code D [10] | Carbohydrate Screening Results, Bacteria Code J [8] | Carbohydrate Screening Results, Bacteria Code F [7] | Carbohydrate Screening Results, Bacteria Code I [9]

O=C(O)CCC(=O)O [Succinic Acid]
Y: Carbohydrate Screening Results, Bacteria Code A [1]

CO[C@@H]1O[C@H](CO)[C@@H](O)[C@H](O)[C@H]1O [β-Methyl-D-Glucoside]
Y: Carbohydrate Screening Results, Bacteria Code B [2] | Carbohydrate Screening Results, Bacteria Code H [4] | Carbohydrate Screening Results, Bacteria Code C [5] | Carbohydrate Screening Results, Bacteria Code E [6]

C[C@H](O)C(=O)O [L-Lactic Acid]
Y: Carbohydrate Screening Results, Bacteria Code B [2] | Carbohydrate Screening Results, Bacteria Code A [1] | Carbohydrate Screening Results, Bacteria Code E [6] | Carbohydrate Screening Results, Bacteria Code I [9]
